Assay results reported in PubChem BioAssay (NCI).
Values joined by “and” are separate entries in the source; they are usually repeats but may differ in a detail not shown here. Equal entries are not always repeated.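 Each compound was tested at five concentrations against cells in 96-well plates for 48 hours. GI50: concentration for 50% inhibition of growth. TGI: concentration producing complete growth inhibition.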

Assays:
Assay in all cases: inhibition of tumour cell growth, NCI panel, 48 h
SW-620 colon = test system: SW-620 colon
ACHN renal = test system: ACHN renal
UACC-62 melanoma = test system: UACC-62 melanoma
SK-MEL-5 melanoma = test system: SK-MEL-5 melanoma
PC-3 prostate = test system: PC-3 prostate
NCI/ADR-RES ovarian = test system: NCI/ADR-RES ovarian
NCI-H460 lung = test system: NCI-H460 lung
786-0 renal = test system: 786-0 renal
HS 578T breast = test system: HS 578T breast
MDA-MB-231 breast = test system: MDA-MB-231 breast

Row | Compound | TGI (SW-620 colon) [µM] | TGI (ACHN renal) | TGI (UACC-62 melanoma) [µM] | TGI (SK-MEL-5 melanoma) | TGI (PC-3 prostate) [µM] | TGI (NCI/ADR-RES ovarian) [µM] | TGI (NCI-H460 lung) [µM] | TGI (786-0 renal) [µM] | TGI (HS 578T breast) [µM] | TGI (MDA-MB-231 breast) [µM] | GI50 (SW-620 colon) [µM] | GI50 (ACHN renal) [µM] | GI50 (UACC-62 melanoma) [µM] | GI50 (MDA-MB-231 breast) [µM] | GI50 (SK-MEL-5 melanoma) [µM] | GI50 (PC-3 prostate) [µM] | GI50 (NCI/ADR-RES ovarian) [µM] | GI50 (NCI-H460 lung) [µM] | GI50 (786-0 renal) [µM] | GI50 (HS 578T breast) [µM]
1 | CC(C)(C)N/N=C(/Cc1nc2c3c(ccc2[nH]c1=O)C(=O)c1ccccc1C3=O)C(=O)NC1=C(Cl)C(=O)c2ccccc2C1=O | > 100 | > 100 µM | > 100 | 27 µM | > 100 | 45.1 | 31.3 | > 100 | 79.8 |  |  |  |  |  |  |  |  |  |  | 
2 | C=C1C(=O)OC2CC(C)C(/C=C/C(C)=O)=CCC12 (stereo unspecified) | > 100 | > 100 µM | > 100 | > 100 µM | > 100 | > 100 | > 100 | > 100 | > 100 | > 100 |  |  |  |  |  |  |  |  |  | 
3 | COC(=O)Cc1cc(=O)n2c3ccccc3n(C)c2c1C#N | > 100 | > 100 µM |  | > 100 µM |  |  | > 100 | > 100 |  |  |  |  |  |  |  |  |  |  |  | 
4 | Cc1cc(NC(=O)NCc2ccc(N3C(N)=NC(N)=NC3(C)C)cc2)ccc1S(=O)(=O)F | > 100 | > 100 µM | > 100 | 58.7 µM | 31 | > 100 | > 75.6 | > 100 | > 100 | > 100 | 0.491 | 46.2 | 0.998 | > 62.2 | 1.11 | 0.0962 | > 100 | 0.252 | 5.21 | > 48.7
5 | O=c1ccc(N=Nc2ccccc2)ccc1O | 22.5 | 26 µM | 25.4 | 23.6 µM | 28.6 | 29.6 | 97.8 | 58 | 35.3 | 36.9 |  |  |  |  |  |  |  |  |  | 
6 | COC(=O)C1=NC(=S)NC(c2ccccc2)C1c1nc2ccccc2o1 (stereo unspecified) | > 50 | > 50 µM | > 50 |  |  |  | > 50 | > 50 |  |  |  |  |  |  |  |  |  |  |  | 
7 | Clc1ccc(C=Nc2ccc(-c3nc4ccccc4[nH]3)cc2)cc1 | > 100 | > 100 µM | > 100 | > 100 µM | > 100 | > 100 | > 100 | > 100 | > 100 | > 100 | > 100 | > 100 | > 100 | > 100 | 45 | > 100 | > 100 | > 100 | > 100 | 39
8 | O=c1cc(-c2ccccc2)oc2ccc(Cl)cc12 | > 100 | > 90.6 µM | > 79.4 | > 100 µM | > 80.3 | > 100 | > 100 | > 87.8 | > 91.8 | > 31.6 |  |  |  |  |  |  |  |  |  | 
9 | CCCCCCCCCCCCCCCCCc1nc(Cl)nc(Cl)c1Cl | > 100 | > 100 µM | > 100 | 50.7 µM | > 100 | > 100 | > 100 | > 100 | > 100 | > 100 |  |  |  |  |  |  |  |  |  | 
10 | CC(=O)c1cc2c(N)c(C(=O)Nc3cccc4ccccc34)sc2nc1C | > 50 | > 50 µM | > 50 | > 50 µM | > 50 |  | > 50 | > 50 | > 50 | > 50 | 1.55 | 3.61 | 1.12 | 3.41 | 1.09 | 1.75 |  | 1.61 | 1.87 | 1.82
11 | CCCCCCCCCCCC/C=C\CC[C@@H](O)[C@H](O)CC[C@H](O)[C@@H]1CC[C@@H](CCCCCCCC2=C[C@H](C)OC2=O)O1 | > 100 | 4.71 µM and 26.3 µM | 6.45 | 4.11 µM and 4.85 µM | 16.5 | 27.8 | 26.6 | 40.3 |  | 35.3 | 23.4 | 4.35 |  | 12.4 | 0.0198 | 2.22 | 7.19 |  | 15.7 | 
12 | Cc1ccc(NCCNCC(C)(C)O)c2c(=O)c3ccc(Cl)cc3sc12 | 2.96 |  | 3.42 | 2.95 µM | 2.71 | 3.02 | 2.6 | 3.04 | 3.84 | 2.57 | 1.5 |  | 1.81 | 1.16 | 1.58 | 1.35 | 1.52 | 1.22 | 1.57 | 1.59
13 | N#C/C(=C\c1ccc(O)cc1)C(N)=O | > 100 | > 100 µM | > 100 | > 100 µM |  | > 100 | > 100 | > 100 |  |  |  |  |  |  |  |  |  |  |  | 
14 | FC(F)(F)c1ccccc1C1SCc2nc3ccccc3n21 (stereo unspecified) | > 100 | > 100 µM | > 100 |  |  |  |  | > 100 |  |  |  |  |  |  |  |  |  |  |  | 
15 | O=[N+]([O-])c1cccc(/C=N/Nc2ccc3ccccc3n2)c1O | > 48.4 |  | 20.2 | 3.45 µM | 56.7 | 3.5 | 7.21 | 12.7 | > 88.6 | 25.6 |  |  |  |  |  |  |  |  |  | 
16 | C=CCC(N[C@@H](CO)c1ccccc1)c1ccc2ccccc2n1 (stereo partly specified) | > 100 | > 100 µM | > 100 |  | > 100 | > 100 |  | > 100 | > 100 | > 100 | > 100 | > 100 | > 100 | 45.8 |  | > 100 | > 100 |  | > 100 | > 100
17 | C[N+](C)(C)CC1CCC(C[N+](C)(C)C)C1=NO (stereo unspecified) | > 100 | > 100 µM | > 100 | > 100 µM |  |  |  | > 100 |  |  |  |  |  |  |  |  |  |  |  | 
18 | COC1C(OC(=O)c2ccc(C)[nH]2)C(O)C(Oc2ccc3c(O)c(NC(=O)c4ccc(O)c(CC=C(C)C)c4)c(=O)oc3c2Cl)OC1(C)C (stereo unspecified) | 38 | 77.5 µM | 32.9 | 35.6 µM | 29.3 |  | 69.5 | 31.9 | 61.9 | 49.4 |  |  |  |  |  |  |  |  |  | 
